pIC50: −log10 of the molar value. Read-outs that look alike come from different tables or passages of the source.
Assays:
[1] = tested on: rat Cyp11B enzyme (rat adrenal mitochondria); test: CYP11B enzymatic assay (% inhibition at 100 nM) (Biological Example 9); assay type: biochemical; conditions: for Biological Example No. 9: CYP11B percent inhibition at 100 nM: 100 nM compound, cortisol by ELISA; for CYP11B enzymatic assay % inhibition at 100 nM (Biological Example No. 9): compound at 100 nM
Method in brief: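 Sprague Dawley rat adrenal mitochondria were incubated with compound at 100 nM, 0.5 mM NADPH and 0.1 μM 11-deoxycortisol (pH 7.4 Tris buffer) for 60 min at 37 °C. Cortisol was measured by ELISA and corrected by subtracting the no-NADPH background. % inhibition is relative to the no-compound reaction.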

[2] = target: T1, Cyp21 enzyme (Human HEK 293-Cyp21 stable transfected cells) (Homo sapiens, UniProt P08686); test: CYP21-HEK293 enzymatic assay (% inhibition at 100 nM) (Biological Example 10); assay type: cell-based; conditions: HEK 293-Cyp21 cells
T1 construct: expressed in transfected cells
T1 sequence (P08686 1-495): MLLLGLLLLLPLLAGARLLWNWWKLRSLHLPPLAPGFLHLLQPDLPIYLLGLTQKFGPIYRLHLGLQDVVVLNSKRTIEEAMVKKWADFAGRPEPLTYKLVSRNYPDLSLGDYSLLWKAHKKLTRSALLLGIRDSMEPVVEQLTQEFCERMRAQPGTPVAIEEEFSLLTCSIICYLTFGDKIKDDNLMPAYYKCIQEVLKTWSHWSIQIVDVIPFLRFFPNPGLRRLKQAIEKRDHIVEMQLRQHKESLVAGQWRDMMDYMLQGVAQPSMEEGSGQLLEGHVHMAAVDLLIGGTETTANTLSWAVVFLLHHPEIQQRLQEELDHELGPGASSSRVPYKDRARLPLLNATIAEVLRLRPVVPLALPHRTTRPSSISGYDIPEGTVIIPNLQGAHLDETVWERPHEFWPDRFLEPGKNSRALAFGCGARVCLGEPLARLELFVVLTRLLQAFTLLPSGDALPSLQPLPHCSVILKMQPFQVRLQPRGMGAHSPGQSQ
Protocol: Proceeding using methods similar to those described in Biological Example 11, the percent inhibition at 100 nM was measured.
This assay was used to determine compound activity against Cyp21 enzyme. Human HEK 293-Cyp21 stable transfected cells (maintained in complete growth media DMEM+10% FBS, supplemented with 125 ug/mL Hygromycin) were seeded in a 96-well plate at 20,000 cells/well/100 uL in DMEM plus 10% FBS and allowed to attach overnight. The next day, 20 μL medium was carefully removed and 10 μL of 10× pre-made compounds in DMEM+10% FBS+10% methanol was transferred to the wells to final concentrations of 1000, 100, 10, 1, or 0.1 nM. Mock treatment was 1% methanol in growth media and the cells were left at 37° C., 5% CO2 for 5 hr. After the incubation, 10 μL of substrate progesterone (Sigma) was added to the wells to make a final concentration of 10 μM. The cells were incubated the cells at 37° C. for 20 hr. At the end of incubation, 90 μL of conditioned media was removed to measure DOC level by ELISA.
Preparation of the DOC ELISA: 100 μL of coating buffer (0.025M PBS pH 7.4) containing 200 ng/mL DOC-3-carboxymethyloxime-BSA (Steraloids. inc, Cat#3469-000) was added to each well of a 96-well plate and incubated overnight at 4° C. The next day, the plates were washed twice with 250 μl of wash solution (0.015M PBS pH 7.4 containing 0.05% Tween 20). After being washed, the wells were blocked with 250 μL blocking buffer (3% BSA in 0.025M PBS, pH 7.4) at 37° C. for 2 h. The plates were washed again 3 times as before, and then 90 μL of sample /standards (prepared in complete growth media) was added into the appropriate wells followed by 10 μL of antibody solution (1:450 rabbit anti-DOC in 0.6% BSA/PBS). The plates were incubated at room temperature for 2 h on a shaker. The contents of the wells were removed and the plate was washed 4 times. After the final wash, 100 μL of secondary antibody (1:12000 HRP-goat-anti-rabbit IgG conjugate 0.6% BSA/PBS) was added into each well. The plate was incubated at 30° C. for 45 min. The plate was washed again 4 times and 100 μL of TMB substrate solution was added to each well. The plate was incubated at room temperature for 10 min. 100 μL of stop solution was added to each well and the optical density was read at 450 nm.
The mean absorbance value for each sample was used to determine the corresponding concentration from the standard curve. Data was analyzed with “log(antagonist) vs response variable slope” under “non-linear regression analysis” using Prism5 software.

[3] = target: T2, CYP17 (human testicular microsome) (Homo sapiens, UniProt P05093); test: CYP17 enzymatic assay (IC50) (Biological Example 4); assay type: biochemical
T2 construct: using microsomal fraction from human testis (Celsis Cat #S00110) as the enzyme source; tissue Celsis S00110; host or cells: human testis microsomal fraction
T2 sequence (P05093 1-508): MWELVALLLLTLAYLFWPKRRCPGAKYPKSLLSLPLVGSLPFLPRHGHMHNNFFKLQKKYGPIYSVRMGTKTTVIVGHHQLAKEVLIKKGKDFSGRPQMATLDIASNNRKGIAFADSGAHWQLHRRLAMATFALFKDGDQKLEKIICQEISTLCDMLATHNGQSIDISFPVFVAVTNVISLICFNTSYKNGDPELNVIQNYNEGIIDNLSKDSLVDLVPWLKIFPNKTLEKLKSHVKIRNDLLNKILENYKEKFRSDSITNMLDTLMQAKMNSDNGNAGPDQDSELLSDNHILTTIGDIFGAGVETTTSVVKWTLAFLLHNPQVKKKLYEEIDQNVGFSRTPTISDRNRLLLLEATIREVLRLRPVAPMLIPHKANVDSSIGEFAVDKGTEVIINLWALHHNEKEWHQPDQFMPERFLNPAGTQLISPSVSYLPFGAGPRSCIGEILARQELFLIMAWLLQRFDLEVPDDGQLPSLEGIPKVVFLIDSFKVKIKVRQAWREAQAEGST

[4] = target: T2, CYP17 (human testicular microsome); test: CYP17 enzymatic assay (% inhibition at 10 nM), version 1 (Biological Example 5); assay type: biochemical
Protocol: The assays were performed in 96-well plates. Typical assays were carried out in total 100 μL volume that included test compounds at 10 nM concentration, 1× reaction buffer, 0.5 mM NADPH, 1 μM 17α-hydroxypregnenolone, and 2.5 μL of diluted human testicular microsome (Celsis. Cat #S00110). Reaction without test compound served as positive control. Reactions were allowed to incubate at 37° C. for 90 minutes with gentle shaking. The reaction was stopped by directly applying the enzymatic reaction mixture to ELISA plate for evaluation of DHEA concentration according to manufacturer's protocol (IBL America). A standard curve (OD450 vs. DHEA concentration) was generated using purified DHEA. […] Percent inhibition (inhibition %) of the compound was calculated using normalized DHEA concentration based on following formula: 100-([DHEA] of compound/[DHEA] of positive control *100).

[5] = Human liver microsome stability assay (Biological Example 8b); conditions: liver microsomes, pH 7.4
Protocol: The reaction was started with addition of excess NADPH (5 mg/mL, 15 μL in 0.1 M potassium phosphate buffer, 1.0 mM EDTA, pH 7.4), the total volume is 45 μL (compound final concentration was 1 μM). […] 50 μL of the supernatant was transferred from each well into a 96-well sample plate containing 50 μL of ultra-pure water (Millipore) for LC-MS/MS analysis.

[6] = target: T2, CYP17 (human testicular microsome); test: CYP17 enzymatic assay (% inhibition at 1 nM) (Biological Example 12); assay type: biochemical; conditions: compound at 1 nM, read-out: CYP17 enzymatic assay % inhibition at 1 nM (Biological Example No. 12)
CYP17 (H295R cells) = target: T3, CYP17 (H295R cells) (Homo sapiens, UniProt P05093); test: CYP17 cellular assay (IC50), testosterone in H295R cells (Biological Example 7); assay type: cell-based; conditions: H295R cells, testosterone; read-out: CYP17 cellular assay IC50 (Biological Example No. 7)
T3 construct: endogenous in cells; host or cells: H295R cells
T3 sequence (P05093 1-508): T2 sequence (P05093 1-508)
Method in brief: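 Testosterone in the medium was quantified by ELISA after 24 h at 37 °C with test compound (final 100, 10, 1, 0.1 nM; serum-free DMEM/F-12, ITS+, 0.1% methanol). The H295R cells had been seeded and grown 24 h beforehand; vehicle wells served as control.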

[7] = 100 nM compound, read-out: Biological Example No. 10: CYP21-HEK293 percent inhibition at 100 nM
[8] = human testicular microsome, DHEA by ELISA, read-out: Biological Example No. 4: CYP17 enzymatic assay IC50
[9] = 10 nM compound, DHEA by ELISA, read-out: Biological Example No. 5: CYP17 percent inhibition at 10 nM (version 1)
[10] = compound at 100 nM, read-out: CYP21-HEK293 enzymatic assay % inhibition at 100 nM (Biological Example No. 10)
[11] = human testicular microsome, read-out: CYP17 enzymatic assay IC50 (Biological Example No. 4)

SMILES | Biological Example No. 9: CYP11B percent inhibition at 100 nM [1] | inhibition at 0.1 µM [2, 7] [%] | pIC50 [3, 8] | inhibition at 0.01 µM [4, 9] [%] | half-life at 1 μM [5] [min] | pIC50 [3] | inhibition at 0.001 µM [6] [%] | CYP11B enzymatic assay % inhibition at 100 nM (Biological Example No. 9) [1] | inhibition at 0.1 µM [2, 10] [%] | pIC50 [3, 11] | inhibition at 0.01 µM ([4]; compound at 10 nM, read-out: CYP17 enzymatic assay % inhibition at 10 nM (Biological Example No. 5)) [%] | pIC50 (CYP17 (H295R cells))
C[C@]12CC[C@H]3[C@@H](CCN4C(=O)CCCC[C@]34C)[C@@H]1CC=C2c1cccnc1 [Compound 38, (11aR,13aS)-11a,13a-dimethyl-1-(pyridin-3-yl)-3b,4,5,8,9,10,11,11a,11b,12,13,13a-dodecahydro-3H-azepino[2,1-a]cyclopenta[f]isoquinolin-7(3aH)-one] | na (“na” means the compound was not active under the conditions tested) | < 30 | > 7.96 | 50 to 80 | – | – | – | – | – | – | – | –
C[C@]12CCCCC1C(=O)C[C@@H]1[C@@H]2CC[C@]2(C)C(n3ccnc3)=CC[C@@H]12 (stereo partly drawn) [Compound 88, (10R,13S)-17-(1H-imidazol-1-yl)-10,13-dimethyl-2,3,4,5,7,8,9,11,12,13,14,15-dodecahydro-1H-cyclopenta[a]phenanthren-6(10H)-one] | T (T means the compound had a percent inhibition of less than 32% when tested at 100 nM) | < 30 | > 7.96 | > 80 | – | – | – | – | – | – | – | –
CN1CC=C2CC[C@@H]3[C@H](CC[C@]4(C)C(c5cccnc5)=CC[C@@H]34)[C@@]2(C)CC1 [Compound 147, (5aR,7aS)-2,5a,7a-trimethyl-8-(pyridin-3-yl)-2,3,4,5,5a,5b,6,7,7a,10,10a,10b,11,12-tetradecahydrocyclopenta[5,6]naphtho[2,1-c]azepine] | na (“na” means the compound was not active under the conditions tested) | < 30 | – | 1 to 50 | – | – | – | – | – | – | – | –
CN1CC=C2CC[C@@H]3[C@H](CC[C@]4(C)C(n5ccnc5)=CC[C@@H]34)[C@@]2(C)CC1 [Compound 151] | T (T means the compound had a percent inhibition of less than 32% when tested at 100 nM) | < 30 | – | 1 to 50 | – | – | – | – | – | – | – | –
CN1CC[C@@]2(C)C(=CC1=O)CC[C@H]1C3=CC=C(c4cccnc4)[C@@]3(C)CC[C@@H]12 [Compound 158] | T (T means the compound had a percent inhibition of less than 32% when tested at 100 nM) | ≥ 30 | > 7.96 | > 80 | 1 to 50 | – | – | – | – | – | – | –
C[C@]12CC[C@H]3[C@@H](CC[C@H]4CC(=O)CC[C@@]43C)C1=CC=C2c1cccnc1 [Compound 164, (5S,8R,9S,10S,13S)-10,13-dimethyl-17-(pyridin-3-yl)-4,5,6,7,8,9,10,11,12,13-decahydro-1H-cyclopenta[a]phenanthren-3(2H)-one] | U (U means the compound had a percent inhibition of greater than or equal to 32%) | ≥ 30 | > 7.96 | > 80 | 1 to 50 | – | – | – | – | – | – | –
C[C@]12CC[C@H]3[C@@H](CC[C@H]4CC(=O)CC[C@@]43C)C1=CC=C2n1ccnc1 [Compound 171] | T (T means the compound had a percent inhibition of less than 32% when tested at 100 nM) | < 30 | – | > 80 | 1 to 50 | > 7.96 | – | – | – | – | – | –
C[C@]12CCC(NC(=O)C3CC3)CC1=CCC1C2CC[C@]2(C)C(n3ccnc3)=CCC12 (stereo partly drawn) [Compound 238, N-((10R,13S)-17-(1H-imidazol-1-yl)-10,13-dimethyl-2,3,4,7,8,9,10,11,12,13,14,15-dodecahydro-1H-cyclopenta[a]phenanthren-3-yl)cyclopropanecarboxamide] | – | – | – | – | 1 to 50 | – | > 50 | U (U means the compound had a percent inhibition of greater than or equal to 32%) | < 30 | > 7.96 | – | –
C[C@]12CC[C@H]3[C@@H](CC[C@H]4CC(=O)NCC[C@@]43C)C1=CC=C2n1ccnc1 [Compound 447, (5aS,5bS,7aS,10bR,12aS)-8-(1H-imidazol-1-yl)-5a,7a-dimethyl-3,4,5,5a,5b,6,7,7a,10b,11,12,12a-dodecahydrocyclopenta[5,6]naphtho[1,2-d]azepin-2(1H)-one] | – | – | – | – | 1 to 50 | – | – | na (“na” means the compound was not active under the conditions tested) | ≥ 30 | > 7.96 | > 80 | –
Cc1ccncc1C1=CC[C@H]2[C@@H]3CC[C@H]4CC(=O)NCC[C@]4(C)[C@H]3CC[C@]12C [Compound 462, (5aS,5bS,7aS,10aS,10bR,12aS)-5a,7a-dimethyl-8-(4-methylpyridin-3-yl)-3,4,5,5a,5b,6,7,7a,10,10a,10b,11,12,12a-tetradecahydrocyclopenta[5,6]naphtho[1,2-d]azepin-2(1H)-one] | – | – | – | – | – | – | 10 to 50 | T (T means the compound had a percent inhibition of less than 32% when tested at 100 nM) | < 30 | – | – | > 7.82
